Test results as given in the supplement of paper PMC10307832.

Tests used:
Test in all cases: relative viability (nuclei count vs DMSO), 5 days (fraction); higher = more cells survive
Docetaxel = compound: CC(=O)O[C@@]12CO[C@@H]1C[C@H](O)[C@@]1(C)C(=O)[C@H](O)C3=C(C)[C@@H](OC(=O)[C@H](O)[C@@H](NC(=O)OC(C)(C)C)c4ccccc4)C[C@@](O)([C@@H](OC(=O)c4ccccc4)[C@H]21)C3(C)C [Docetaxel]
Method in brief: (§1)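 On vehicle-anchored 1536-well plates, lung cancer cell lines held overnight at 37 °C were pinned with five library-drug doses (not always all listed) spaced by √10. With no medium change over 5 days, they were then fixed, permeabilised and Hoechst-stained in one step and imaged at 4×. MetaXpress counted nuclei, and viability is the median across plates of treated-well over vehicle-well nuclei. Acceptance needed control CV below 25% and at least one doubling.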

Tivozanib = compound: COc1cc2nccc(Oc3ccc(NC(=O)Nc4cc(C)on4)c(Cl)c3)c2cc1OC [Tivozanib]
Method in brief: as §1

[1] = compound: Cc1cnc(-c2cnc(NCCNc3ccc(C#N)cn3)nc2-c2ccc(Cl)cc2Cl)[nH]1
Method in brief: as §1

JQ1 = compound: Cc1sc2c(c1C)C(c1ccc(Cl)cc1)=N[C@@H](CC(=O)OC(C)(C)C)c1nnc(C)n1-2 [JQ1]
Method in brief: as §1

Cytarabine = compound: Nc1ccn([C@@H]2O[C@H](CO)[C@@H](O)[C@@H]2O)c(=O)n1 [Cytarabine]
Method in brief: as §1

CPI-613 = compound: O=C(O)CCCCC(CCSCc1ccccc1)SCc1ccccc1 [CPI-613]
Method in brief: as §1

Pimozide = compound: O=c1[nH]c2ccccc2n1C1CCN(CCCC(c2ccc(F)cc2)c2ccc(F)cc2)CC1 [Pimozide]
Method in brief: as §1

| Cell Line | relative viability (Docetaxel; 0.0002 µM) | relative viability (Docetaxel; 0.000632 µM) | relative viability (Docetaxel; 0.002 µM) | relative viability (Docetaxel; 0.006325 µM) | relative viability (Docetaxel; 0.02 µM) | relative viability (Tivozanib; 0.005 µM) | relative viability (Tivozanib; 0.01581 µM) | relative viability (Tivozanib; 0.05 µM) | relative viability (Tivozanib; 0.1581 µM) | relative viability (Tivozanib; 0.5 µM) | relative viability ([1]; 0.08 µM) | relative viability ([1]; 0.253 µM) | relative viability ([1]; 0.8 µM) | relative viability ([1]; 2.53 µM) | relative viability (JQ1; 0.04 µM) | relative viability (JQ1; 0.1265 µM) | relative viability (JQ1; 0.4 µM) | relative viability (JQ1; 1.265 µM) | relative viability (JQ1; 4 µM) | relative viability (Cytarabine; 0.01581 µM) | relative viability (Cytarabine; 0.05 µM) | relative viability (Cytarabine; 0.1581 µM) | relative viability (Cytarabine; 0.5 µM) | relative viability (CPI-613; 5 µM) | relative viability (CPI-613; 15.81 µM) | relative viability (CPI-613; 50 µM) | relative viability (CPI-613; 158.11 µM) | relative viability (CPI-613; 500 µM) | relative viability (Pimozide; 0.08 µM) | relative viability (Pimozide; 0.253 µM) | relative viability (Pimozide; 0.8 µM) | relative viability (Pimozide; 2.53 µM) | relative viability (Pimozide; 8 µM) | relative viability (Cytarabine; 0.005 µM) |
| --- | --- | --- | --- | --- | --- | --- | --- | --- | --- | --- | --- | --- | --- | --- | --- | --- | --- | --- | --- | --- | --- | --- | --- | --- | --- | --- | --- | --- | --- | --- | --- | --- | --- | --- |
| NCI-H1792 | 0.715 | 0.677 | 0.291 | 0.213 | 0.131 | 0.893 | 0.912 | 1.11 | 0.51 | 0.762 | 1.02 | 0.793 | 0.923 | 0.951 | 0.801 | 0.605 | 0.844 | 0.408 | 0.156 | 0.908 | 0.45 | 0.411 | 0.231 | 0.896 | 0.793 | 0.956 | 0.651 | 0.511 | 0.936 | 0.843 | 0.62 | 0.81 | 0.763 |  |
| NCI-H1793 | 1.01 | 0.852 | 0.351 | 0.285 | 0.186 | 0.84 | 0.787 | 0.952 |  | 0.977 | 1.07 | 0.879 | 0.876 | 1.02 | 0.802 | 0.785 | 0.674 | 0.778 | 0.78 | 0.884 | 0.818 | 0.691 | 0.521 | 0.854 | 0.705 | 0.994 | 0.494 | 0.0301 | 0.746 | 0.846 | 0.675 | 0.947 | 0.711 | 0.958 |
| NCI-H1915 | 0.986 | 0.943 | 0.326 | 0.262 | 0.16 | 0.959 | 0.971 | 0.984 | 0.896 | 0.75 | 1.02 |  | 0.973 | 0.919 | 0.975 | 0.702 | 0.904 | 0.427 | 0.269 | 0.916 | 0.854 | 0.609 | 0.503 | 1.01 | 0.996 | 0.97 | 0.949 | 0.0528 | 0.972 | 0.919 | 0.631 | 0.928 | 0.925 | 0.916 |
| NCI-H1944 | 0.948 | 1 | 0.822 | 0.336 | 0.173 | 0.925 | 0.998 | 0.949 | 0.849 | 0.978 | 1.09 |  | 1.01 | 0.916 | 0.951 | 0.709 | 0.612 | 0.53 | 0.485 | 0.481 | 0.381 | 0.23 | 0.159 | 0.918 | 0.922 | 0.947 | 0.712 | 0.51 | 0.925 | 0.877 | 0.698 | 0.795 | 0.944 | 0.654 |
| NCI-H1975 | 0.916 | 0.702 | 0.344 | 0.213 | 0.168 | 0.842 | 0.922 | 0.991 | 0.852 | 0.786 | 0.859 | 0.888 | 0.813 | 0.647 | 0.953 | 0.643 | 0.782 | 0.597 | 0.53 | 1.08 | 0.987 | 0.546 | 0.35 | 0.919 | 0.901 | 0.984 | 0.87 | 0.075 | 0.916 | 0.941 | 0.92 | 0.966 | 0.775 | 1.07 |
| NCI-H1993 | 0.778 | 0.964 | 0.806 | 0.597 | 0.5 | 0.945 | 0.867 | 1.13 | 0.589 | 0.762 | 0.951 | 0.789 | 1.03 | 1.07 | 0.919 | 0.994 | 0.922 | 0.663 | 0.709 | 0.916 | 0.764 | 0.655 | 0.519 | 0.84 | 0.932 | 0.967 | 0.717 | 0.439 | 0.822 | 0.824 | 0.816 | 0.969 | 0.912 | 0.941 |
| NCI-H2009 | 0.955 | 1 | 0.944 | 0.456 | 0.239 | 0.955 | 1 | 1.02 | 0.994 | 0.91 | 1.01 | 0.93 | 1.08 | 0.943 | 0.96 | 0.645 | 0.574 | 0.297 | 0.313 | 1.01 | 0.997 | 0.724 | 0.398 | 0.995 | 0.939 | 0.923 | 0.24 | 0.0296 | 0.997 | 0.985 | 1.01 | 0.909 | 0.926 | 1.01 |
| NCI-H2023 | 0.846 | 0.547 | 0.147 | 0.12 | 0.0751 | 0.966 | 0.951 | 0.927 | 0.847 | 0.923 | 1.32 | 0.794 | 1.06 | 0.939 | 0.893 | 0.665 | 0.439 | 0.243 | 0.207 | 0.282 | 0.172 | 0.107 | 0.0892 | 0.926 | 0.836 | 0.91 | 0.0969 | 0.0098 | 0.993 | 0.961 | 0.82 | 0.858 | 0.778 | 0.542 |
| NCI-H2085 | 0.968 | 0.987 | 0.746 | 0.504 | 0.373 | 0.982 | 1 | 1.02 | 0.936 | 0.982 | 1.04 | 0.933 | 0.995 | 1.02 | 1.01 | 0.891 | 0.867 | 0.622 | 0.537 | 0.929 | 0.868 | 0.808 | 0.801 | 0.987 | 0.935 | 0.935 | 0.82 | 0.246 | 0.973 | 1.01 | 0.957 | 1.02 | 0.881 | 0.965 |
